Results: the supplement of paper PMC11150407

Legend:
Experiment in all cases: cell viability relative to vehicle (fraction); higher = less inhibition
Conditions in all cases: 72 h
PR#0023 = system: PR#0023
Description: (§1)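 Primary 3q26 AML patient cells were treated for 72 h with AR-42, belinostat or entinostat (0.01-2 uM, 2-fold dilutions), in duplicate. Viability was measured by ATP-based luminescence and normalised to vehicle, given as a fraction.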

PR#0024 = system: PR#0024
Description: as §1

PR#002 = system: PR#002
Description: as §1

PR#003 = system: PR#003
Description: as §1

PR#004 = system: PR#004
Description: as §1

PR#005 = system: PR#005
Description: as §1

PR#006 = system: PR#006
Description: as §1

PR#007 = system: PR#007
Description: as §1

PR#008 = system: PR#008
Description: as §1

CC(C)[C@H](C(=O)Nc1ccc(C(=O)NO)cc1)c1ccccc1 [AR-42]
cell viability
Conditions	PR#002	PR#003	PR#004	PR#005	PR#006	PR#007	PR#008	PR#0023	PR#0024
0.016 µM	1	1.01	0.809	0.962	0.936	0.988	0.553	0.955	0.953
0.031 µM	0.938	0.853	0.646	0.977	0.904	1.0115	0.434	0.984	0.81
0.0625 µM	0.855	0.797	0.417	0.833	0.902	1.01	0.3	0.675	0.67
0.125 µM	0.792	0.503	0.248	0.991	0.552	0.872	0.199	0.785	0.4575
0.25 µM	0.508	0.247	0.132	0.928	0.367	0.748	0.0865	0.441	0.259
0.5 µM	0.124	0.0952	0.0759	0.239	0.104	0.443	0.0168	0.4779	0.127
1 µM	0.0233	0.0399	0.0688	0.0777	0.0486	0.155	0.0142	0.116	0.0553
2 µM	0.01971	0.0313	0.0591	0.0322	0.0395	0.0706	0.016	0.0583	0.0347

O=C(/C=C/c1cccc(S(=O)(=O)Nc2ccccc2)c1)NO [Belinostat]
cell viability
Conditions	PR#002	PR#003	PR#004	PR#005	PR#006	PR#007	PR#008	PR#0023	PR#0024
0.016 µM	1.22	1.12	0.978	0.798	1.048	0.981	0.643	0.933	0.97
0.031 µM	1.08	1.12	0.967	0.698	0.987	0.961	0.642	0.917	0.882
0.0625 µM	1.01	0.9713	0.7834	0.979	0.941	0.897	0.468	0.893	0.77
0.125 µM	1.01	0.874	0.577	0.871	0.729	0.854	0.391	0.8339	0.609
0.25 µM	0.902	0.562	0.326	0.524	0.481	0.717	0.247	0.777	0.363
0.5 µM	0.492	0.3	0.125	0.404	0.177	0.4339	0.0828	0.611	0.184
1 µM	0.114	0.0978	0.0685	0.108	0.0585	0.173	0.0197	0.325	0.0781
2 µM	0.0243	0.0452	0.0602	0.0361	0.035	0.0759	0.0115	0.0655	0.0477

Nc1ccccc1NC(=O)c1ccc(CNC(=O)OCc2cccnc2)cc1 [Entinostat]
cell viability
Conditions	PR#002	PR#003	PR#004	PR#005	PR#006	PR#007	PR#008	PR#0023	PR#0024
0.016 µM	1.02	0.949	0.78	1.04	0.961	0.934	0.764	0.932	1.08
0.031 µM	0.94	1	0.673	0.625	0.813	0.903	0.691	0.923	1.02
0.0625 µM	0.869	0.91	0.472	0.534	0.731	0.938	0.49	0.806	0.924
0.125 µM	0.736	0.735	0.298	0.437	0.555	0.918	0.303	0.7626	0.827
0.25 µM	0.593	0.536	0.183	0.475	0.434	0.778	0.186	0.6886	0.682
0.5 µM	0.396	0.281	0.1099	0.203	0.2018	0.666	0.0771	0.589	0.516
1 µM	0.0907	0.115	0.0717	0.06904	0.115	0.345	0.0229	0.423	0.285
2 µM	0.0309	0.0591	0.0662	0.0415	0.065	0.168	0.00956	0.183	0.14
